Columns and labels:
[1] = biological target: T1, 5-HT2C receptor (Sus scrofa, UniProt K7GSR7); assay: 5-HT2C receptor binding, pig brain choroid plexus membrane, tritiated mesulergine; settings: read-out: Inhibition of receptor binding of the radioactive ligand (Ki), 5-HT2C
T1 construct: pig brain choroid plexus membrane-preparation; from tissue; host or cells: pig brain choroid plexus membranes
T1 sequence (K7GSR7 1-457): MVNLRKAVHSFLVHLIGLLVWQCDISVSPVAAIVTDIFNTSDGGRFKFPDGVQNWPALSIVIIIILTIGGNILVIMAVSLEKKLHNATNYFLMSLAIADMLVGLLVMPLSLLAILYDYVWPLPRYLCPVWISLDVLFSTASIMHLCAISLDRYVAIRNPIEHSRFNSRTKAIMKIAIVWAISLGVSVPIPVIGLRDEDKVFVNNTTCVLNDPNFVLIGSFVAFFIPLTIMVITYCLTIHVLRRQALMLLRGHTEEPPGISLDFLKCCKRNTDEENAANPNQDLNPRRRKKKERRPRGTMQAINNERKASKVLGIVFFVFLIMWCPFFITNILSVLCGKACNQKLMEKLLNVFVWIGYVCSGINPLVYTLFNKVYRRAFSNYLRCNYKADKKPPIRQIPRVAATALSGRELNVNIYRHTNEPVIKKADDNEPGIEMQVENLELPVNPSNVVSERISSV
Procedure: (§1) 4) 5-HT2A and 5-HT2C Receptor Binding Studies
(§2) 5-HT2A and 5-HT2C receptor binding was measured according to the methods described by Leysen et al. /Mol. Pharmacol., 21, 301 (1981)/and Pazos et al. /Eur. J. Pharmacol., 106, 539 (1985)/, respectively. 5-HT2A receptor binding was measured in rat brain frontal cortex membrane preparation using tritiated ketanserine /3-/2-(4-fluorobenzoyl)-1-piperidinyl/ethyl-2,4-(1H,3H)-quinazolinedione/ (60-90 Ci/mmole) as ligand. 5-HT2C receptor binding was measured in pig brain choroid plexus membrane-preparation using tritiated mesulergine /N'-/(8)-1,6-dimethylergoline-8-yl/-N,N-dimethylsulfamide (70-85 Ci/mmole) as the ligand. Non-specific binding to 5-HT2A and 5-HT2C receptors were determined in the presence of 10 micromoles of cyproheptadine /4-(5H-dibenzo/a,d/cycloheptene-5-ylidene)-1-methylpiperidine/and 1 micromole of mianserine /1,2,3,4,10,14b-hexahydro-2-methyldibenzo/c,f/pyrazino/1,2-a/azepine/, respectively. The final incubation volumes were 250 and 1000 microlitres. Samples were incubated for 15 and 30 minutes at 37° C. Incubation was stopped by adding 9 ml of ice-cold 50 mr- tris(hydroxymethyl)aminomethane hydrochloride (pH=7.7) to the reaction mixture. The samples were rapidly filtered through whatman GF/B glass fiber filters using reduced pressure. […] Radioactivity of the filters was determined by a scintillation spectrometer.

[2] = biological target: T2, 5-HT2A receptor (Rattus norvegicus, UniProt P14842); assay: 5-HT2A receptor binding, rat brain frontal cortex membrane, tritiated ketanserine; settings: read-out: Inhibition of receptor binding of the radioactive ligand (Ki), 5-HT2A
T2 construct: rat brain frontal cortex membrane preparation; from tissue; host or cells: rat brain frontal cortex membranes
T2 sequence (P14842 whole entry): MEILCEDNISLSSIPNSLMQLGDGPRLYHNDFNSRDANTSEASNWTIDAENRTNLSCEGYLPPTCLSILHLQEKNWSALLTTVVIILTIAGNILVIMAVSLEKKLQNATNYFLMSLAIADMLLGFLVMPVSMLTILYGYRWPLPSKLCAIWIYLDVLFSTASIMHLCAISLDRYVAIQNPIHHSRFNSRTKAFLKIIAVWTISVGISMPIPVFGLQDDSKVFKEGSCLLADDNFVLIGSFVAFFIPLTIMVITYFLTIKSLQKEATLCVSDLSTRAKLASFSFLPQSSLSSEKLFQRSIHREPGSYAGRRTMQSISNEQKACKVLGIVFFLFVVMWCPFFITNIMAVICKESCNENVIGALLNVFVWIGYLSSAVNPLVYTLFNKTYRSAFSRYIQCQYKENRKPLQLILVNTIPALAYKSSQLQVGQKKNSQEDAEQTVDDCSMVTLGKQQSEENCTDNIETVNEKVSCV
Procedure: as §1, §2

[3] = tested on: isolated rat thoracic aorta; assay: Vascular relaxing effect in isolated rat thoracic aorta contracted with 40 mM potassium chloride (diltiazem); set-up: species or system rat (male SPRD); settings: 40 mM KCl contracted strips, 37° C., read-out: IC50 (vascular relaxation in isolated rat thoracic aorta)
Procedure: Experiments were performed in thoracic aortas obtained from male SPRD rats weighing 250 to 300 g. Thoracic aortas excised from rats killed by decapitation and ensanguination were cleaned of fat and connective tissue, then were immediately placed in carbogenized TYRODE solution. The composition of the normal TYRODE solution was the following (in mM): NaCl 114.7, KCl 3.7, CaCl2 3.6, MgCl2 0.49, NaHCO3 19.9, NaH2 PO4 0.32, glucose 5.1.
Two mm wide and 20 to 25 mm long strips were cut from the aortas along a helical line at 45° angle. Aortic strips were mounted vertically between two cotton threads in 10 ml organ chambers, the lower threads were attached to the organ chambers and the upper threads were connected to isometric force transducers. The strips were incubated under 1 g resting tension at 37° C. for 120 minutes, then resting vascular tone was recorded. […]
When stable vascular tone developed, increasing doses of the test substance were added to the organ bath. The effects of each test substance were measured at least in 3 tissue preparations obtained from different animals. Decreases in vascular tension caused by the test substances were expressed as percentage changes and IC50 for each tissue preparation was determined by sigmoid (in few casses linear) curve fitting. […]

[4] = tested on: human beings; settings: Ceulemans et al.; cited from earlier work

Structure (SMILES)	Ki [1]	Ki [2]	IC50 [3]	treatment of different forms of human anxiety [4]
CN(C)CCCOc1ccccc1-c1nnc(-n2nc(N3CCCC3)nc2N)s1 [Example 44, 2-(5-Amino-3-pyrrolidino-1H-1,2,4-triazole-1-yl)-5-/ 2-(3-dimethylaminopropoxy)phenyl/-1,3,4-thiadiazole]	0.05 µM	> 0.1 µM	–	–
COc1ccc(CCN(C)CCCOc2ccccc2-c2nnc(-n3nc(SC)nc3N)s2)cc1OC [Example 98, 2-(5-Amino-3-methylthio-1H-1,2,4-triazole-1-yl)-5-{2-[3-methyl-3-/ 2-(3,4-dimethoxyphenylethyl)amino/propoxy]phenyl}-1,3,4-thiadiazole]	0.024 µM	> 1 µM	–	–
COc1ccc([C@@H]2Sc3ccccc3N(CCN(C)C)C(=O)[C@@H]2OC(C)=O)cc1 [diltiazem, (2S)-cis-3-acetyloxy-5-(2-dimethylamino-ethyl)-2,3-dihydro-2-(4-methoxyphenyl)-1,5-benzothiazepine-4(5H)-one]	–	–	0.15 µM	–
Cc1nc2sccn2c(=O)c1CCN1CCC(=C(c2ccc(F)cc2)c2ccc(F)cc2)CC1 [ritanserin, 6-[2-/4-bis(4-fluorophenyl)-methylene/ -1-piperidinylethyl]-7-methyl-5H-thiazolo/3,2-a/pyrimidine-5-one]	–	–	–	proved to be effective for the treatment of different forms of human anxiety

Reference: patent publication US6191152A, “2-(1,2,4-triazole-1-yl)-1,3,4-thiadiazole derivatives having an effect on the C.N.S. and the heart” (EGIS Gyogyszergyar Rt., priority 1997, dated 2001)
